The record followed here is PubChem BioAssay AID212 (DTP/NCI, 2004).

“And” between values parts separate entries of the source, which are not always exact repeats. Equal values may be shown once. Records with an inconclusive call do not appear.

The test relates to BDF1 mice, colon carcinoma 38 sc, T/C %. The experiment in a line: NCI In Vivo Anticancer Drug Screen. Data for tumor model Colon Carcinoma 38 (subcutaneous) in B6D2F1 (BDF1) mice. Conditions: endpoint: median tumor weight (est.), higher = larger tumour. In short, it runs like this:
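Ratio of survival or tumor size, compound-treated animals relative to vehicle controls, in tumor-bearing mice.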

Setting [1] is: dose: 12.5 mg/kg/injection, schedule: Q07DX002 (ip), vehicle: saline with Tween-80.
Where [2] appears, read: dose: 50.0 mg/kg/injection, schedule: Q07DX002 (ip), vehicle: saline with Tween-80.
The mark [3] stands for this setting: dose: 100.0 mg/kg/injection, schedule: Q07DX002 (ip), vehicle: saline with Tween-80.
Setting [4] is: dose: 200.0 mg/kg/injection, schedule: Q07DX002 (ip), vehicle: saline with Tween-80.
[5] abbreviates: dose: 400.0 mg/kg/injection, schedule: Q07DX002 (ip), vehicle: saline with Tween-80.
[6] abbreviates: dose: 25.0 mg/kg/injection, schedule: Q07DX002 (ip), vehicle: saline with Tween-80.
The mark [7] stands for this setting: dose: 12.5 mg/kg/injection, schedule: Q07DX002 (ip), vehicle: saline.
[8] abbreviates: dose: 25.0 mg/kg/injection, schedule: Q07DX002 (ip), vehicle: saline.
Where [9] appears, read: dose: 50.0 mg/kg/injection, schedule: Q07DX002 (ip), vehicle: saline.
Setting [10] is: dose: 3.12 mg/kg/injection, schedule: Q07DX002 (ip), vehicle: saline.
[11] abbreviates: dose: 6.25 mg/kg/injection, schedule: Q07DX002 (ip), vehicle: saline.
The mark [12] stands for this setting: dose: 100.0 mg/kg/injection, schedule: Q07DX002 (ip), vehicle: saline.

With `COC1=C(OC)C(=O)C(C/C=C(\C)CC/C=C(\C)CC/C=C(\C)CC/C=C(\C)CC/C=C(\C)CC/C=C(\C)CC/C=C(\C)CC/C=C(\C)CC/C=C(\C)CCC=C(C)C)=C(C)C1=O`, the T/C under setting [1] was 202 % of control; the T/C under setting [2] was 86 % of control; the T/C under setting [3] was 83 % of control; the T/C under setting [4] was 121 % of control; the T/C under setting [5] was 110 % of control.

Take `Cn1ccc(=Nc2ccc(NC(=O)c3ccc(N=c4ccn(C)c5ccc([N+](=O)[O-])cc45)cc3[N+](=O)[O-])cc2)cc1`: the T/C under setting [6] is 99 % of control; the T/C under setting [2] was 60 % of control; the T/C under setting [3] was 105 % of control; the T/C under setting [4] is 90 % of control; the T/C under setting [5] was 29 % of control; the T/C (dose: 800.0 mg/kg/injection, schedule: Q07DX002 (ip), vehicle: saline with Tween-80) is 67 % of control.

As to `O=c1n(CC2CO2)c(=O)n(CC2CO2)n1CC1CO1` (stereo not drawn), the T/C under setting [7] was 25 % of control, the T/C under setting [8] was 25 % of control and the T/C under setting [9] was 18 % of control.

In the case of `C[Si](C)(C)O/C=C1\CCCCC1=O`, the T/C is, setting by setting: under setting [2], 73 % of control and 91 % of control; under setting [3], 79 % of control and 100 % of control.

Turning to `NNC(=S)N/N=C/c1ccccn1`, the T/C by setting is: (dose: 3.12 mg/kg/injection, schedule: Q07DX002 (ip), vehicle: suspension in saline) 84 % of control; (dose: 6.25 mg/kg/injection, schedule: Q07DX002 (ip), vehicle: suspension in saline) 49 % of control; (dose: 12.5 mg/kg/injection, schedule: Q07DX002 (ip), vehicle: suspension in saline) 77 % of control; (dose: 25.0 mg/kg/injection, schedule: Q07DX002 (ip), vehicle: suspension in saline) 75 % of control; (dose: 50.0 mg/kg/injection, schedule: Q07DX002 (ip), vehicle: suspension in saline) 64 % of control.

For the molecule `NC(=O)c1ccc[n+](Cc2c(Cl)cccc2Cl)c1`, the T/C reads like this: under setting [10], 83 % of control and 94 % of control; under setting [11], 68 % of control; under setting [7], 97 % of control; under setting [8], 116 % of control and 94 % of control; under setting [12], 85 % of control and 90 % of control.

For `CC(=O)C(=O)O.CC(=O)C(=O)O.[NH-]C1CCCCC1[NH-].[Pt+2]` (stereo not drawn), the T/C is 96 % of control (dose: 25.0 mg/kg/injection, schedule: Q07DX002 (ip), vehicle: dextrose) and 44 % of control (dose: 50.0 mg/kg/injection, schedule: Q07DX002 (ip), vehicle: dextrose).

As for `Cc1ccc(C(=O)[O][Hg][CH2]C2COC([CH2][Hg][O]C(=O)c3ccc(C)cc3)CO2)cc1` (stereo not drawn), the T/C (dose: 25.0 mg/kg/injection, schedule: Q07DX002 (ip), vehicle: Klucel (hydroxypropylcellulose) (HPC)) was 186 % of control; the T/C (dose: 50.0 mg/kg/injection, schedule: Q07DX002 (ip), vehicle: Klucel (hydroxypropylcellulose) (HPC)) is 177 % of control and 193 % of control; the T/C (dose: 100.0 mg/kg/injection, schedule: Q07DX002 (ip), vehicle: Klucel (hydroxypropylcellulose) (HPC)) is 154 % of control and 209 % of control.

For `C=C(C)[C@H]1CN[C@H](C(=O)O)[C@H]1CC(=O)O`, the T/C runs as follows: (dose: 0.62 mg/kg/injection, schedule: Q07DX002 (ip), vehicle: saline) 58 % of control; (dose: 1.25 mg/kg/injection, schedule: Q07DX002 (ip), vehicle: saline) 80 % of control; (dose: 2.5 mg/kg/injection, schedule: Q07DX002 (ip), vehicle: saline) 92 % of control; (dose: 5.0 mg/kg/injection, schedule: Q07DX002 (ip), vehicle: saline) 95 % of control; under setting [11], 90 % of control; (dose: 10.0 mg/kg/injection, schedule: Q07DX002 (ip), vehicle: saline) 79 % of control. Also, the T/C under setting [7] was 73 % of control; the T/C (dose: 20.0 mg/kg/injection, schedule: Q07DX002 (ip), vehicle: saline) was 90 % of control; the T/C under setting [8] is 90 % of control.

Turning to `O=C1C(O)=C(c2ccccc2)C(=O)C(O)=C1c1ccccc1`, the T/C by setting is: under setting [1], 103 % of control; under setting [7], 89 % of control; under setting [6], 111 % of control; under setting [8], 55 % of control; under setting [2], 86 % of control; under setting [9], 106 % of control. Also, the T/C by setting is: under setting [12], 105 % of control; (dose: 200.0 mg/kg/injection, schedule: Q07DX002 (ip), vehicle: saline) 102 % of control.

Regarding `CCCNC1=C(C)C(=O)C2=C(C1=O)[C@H](COC(N)=O)[C@]1(OC)[C@@H]3N[C@@H]3CN21`, the T/C was 72 % of control (dose: 0.78 mg/kg/injection, schedule: Q07DX002 (ip), vehicle: saline); 85 % of control (dose: 1.56 mg/kg/injection, schedule: Q07DX002 (ip), vehicle: saline); 84 % of control under setting [10]; 84 % of control (dose: 6.0 mg/kg/injection, schedule: Q07DX002 (ip), vehicle: suspension in saline); 25 % of control under setting [11]; 34 % of control (dose: 12.0 mg/kg/injection, schedule: Q07DX002 (ip), vehicle: suspension in saline). The T/C under setting [7] was 6 % of control.

Turning to `CC1=CC2OC3C(OC(=O)CCCCl)C(OC(=O)CCCCl)C(C)(C2(CO)CC1)C31CO1` (stereo not drawn), the T/C (dose: 2.0 mg/kg/injection, schedule: Q07DX003 (ip), vehicle: saline with Tween-80) is 103 % of control; the T/C (dose: 8.0 mg/kg/injection, schedule: Q07DX003 (ip), vehicle: saline with Tween-80) is 76 % of control; the T/C (dose: 16.0 mg/kg/injection, schedule: Q07DX003 (ip), vehicle: saline with Tween-80) was 83 % of control.
